# Data reported in patent US20140377773A1, “Detection Marker for Anticancer Effects by Selenomethionine as an Inhibitor of Environmental Toxicity” (Dongguk University Industry-Academic Cooperation Foundation, priority 2013, published 2014).
# Assays:
# [1] = system: AOM-induced premalignant lesions; settings: AOM-DSS mouse models (Baines 2000); cited from earlier work
# [2] = system: 8-OHdG (8-hydroxy-2'-deoxyguanosine); experiment: 8-OHdG oxidative stress marker staining of colon tissue; assay type: in vivo, mouse; settings: group pretreated with SeMet and treated with AOM-DSS compared to group treated with AOM-DSS
# Description: (§1) Each of the colons extracted from the mice in Example 1 was fixed in 10% formalin, and then embedded in paraffin to make FFPE (paraffin-embedded) samples. Each of the FFPE samples was sectioned to a thickness of 10 μm and mounted on micro-slides (MUTO-GLASS, Japan), followed by drying at 37° C. overnight. Then, the paraffin sections were deparaffinized with xylene and concentration gradient alcohol. The deparaffinized tissue sections were stained with hematoxylin and eosin (H & E) (Sigma Aldrich) and an antibody (MOG-100P, JaICA) of 8-OHdG (8-hydroxy-2′-deoxyguanosine) known as an oxidative stress marker.
# AOM-DSS mouse model = assay type: in vivo; settings: group 4 (15 ppm SeMet pretreatment + AOM-DSS) compared to group 3 (AOM-DSS)
# Description: In order to examine the chemopreventive activity of SeMet (selenomethionine) against the development of colorectal cancer, the frequency and size of colon polyps in an inflammation-related colorectal cancer-induced mouse model according to the intake of SeMet (selenomethionine) were examined.
# Specifically, an experiment was performed using forty eight 5-week-old ICR male mice (Lab Animal, Korea) divided into the following groups: group 1: treated with neither SeMet (selenomethionine) nor AOM-DSS; group 2: treated with 15 ppm SeMet (selenomethionine) (Pharma Se Inc, USA); group 3: treated with AOM-DSS; and group 4: pretreated with 15 ppm SeMet (selenomethionine) and then treated with AOM-DSS (FIGS. 1A and 1B).
# AOM (azoxymethane) (Sigma-Aldrich Co, USA) that is a colorectal cancer-inducing substance was injected intraperitoneally (i.p.) into the mice at a dose of 10 mg/kg, and 1.5% (w/v) of dextran sodium sulfate (DSS) (MP Biomedicals, LLC, USA) that is a colitis-inducing substance was allowed to drink for one week after injection of AOM.
# The mice of the four groups were euthanized with CO2 gas when reached 22 weeks of age, and the colons were extracted and observed.
# [3] = system: PNP (purine nucleoside phosphorylase); experiment: Immunohistochemical analysis of colon tissue: PNP; assay type: in vivo, mouse; settings: immunohistochemistry
# Description: (§2) Immunohistochemical analysis of the PHB, PNP, ANXA2 and CRP markers determined in Example 4 for the colon tissue samples obtained from groups 1 to 4 in Example 1 was performed.
# (§3) Specifically, the colon paraffin sections obtained from the mice of groups 1 to 4 in […] were deparaffinized and rehydrated. In addition, endogenous peroxidases were quenched with methanol containing 0.3% H2O2 for 20 minutes. The sections were incubated with the primary antibodies anti-prohibitin (H-80) (sc-28259, Santa Cruz Biotechnology), anti-PNP (sc-135163, Santa Cruz Biotechnology), anti-CRP (H-90) (sc-30047, Santa Cruz Biotechnology), anti-annexin II (H-50) (sc-9061, Santa Cruz Biotechnology) and anti-8-OhdG (MOG-100P, JaICA) at 4° C. overnight. Then, the sections were incubated with biotin-conjugated secondary antibodies corresponding to the primary antibodies for 30 minutes, after which the sections were washed with PBS and incubated with streptavidin horseradish peroxidase (Vector Labs) for 30 minutes. The sections were washed with PBS, and then incubated with a DAB (3,3′-diaminobenzidine) substrate solution containing 1.8×10^−3% (v/v) of H2O2 for 10 minutes. […] The degree of staining of each of the markers in tumor cells developed in the stained tissues of each group was measured according to the method described in “Charafe-Jauffret, E., et al. (2004). […]
# ANXA2 (annexin A2) = experiment: Immunohistochemical analysis of colon tissue: ANXA2; assay type: in vivo, mouse
# Description: as §2, §3
# PHB (prohibitin) = experiment: Immunohistochemical analysis of colon tissue: PHB; assay type: in vivo, mouse; settings: immunohistochemistry
# Description: as §2, §3
# colon tissues = experiment: 2-DE and nano-HPLC-ESI-QIT-MS proteomics of colon tissue; assay type: in vivo, mouse; settings: group 4 vs group 3
# Description: In order to investigate the molecular target of SeMet (selenomethionine) having chemopreventive activity against colorectal cancer, the colon tissue samples obtained from the mice of groups 1 to 4 in Example 1 were analyzed using a 2-DE (2-dimensional electrophoresis) method.
# Specifically, the colon tissues (excluding polyps) obtained from group 1 treated neither with SeMet (selenomethionine) nor AOM-DSS, group 2 treated with 15 ppm SeMet (selenomethionine) (Pharma Se Inc, USA), group 3 treated with AOM-DSS and group 4 treated with AOM-DSS after pretreatment with 15 ppm SeMet (selenomethionine) were washed with homogenization buffer A (50 mM Tris-HCl (pH7.5), 2 mM EDTA, 150 mM NaCl and 0.5 mM DTT) and then cut to small pieces. The pieces were homogenized in buffer (50 mM Tris-HCl (pH 7.5), 0.25 M sucrose, 5 mM magnesium acetate, 0.2 mM EDTA and 0.5 mM DTT) supplemented with Halt™ protease inhibitor cocktail (Thermo Fisher Scientific, Rockford, Ill.) on ice using a grinding kit (GE Healthcare Life Science, Uppsala, Sweden). Then, the solution was centrifuged at 13,000 rpm at 4° C. for 30 minutes, and 10% trichloroacetic acid was added to the supernatant to precipitate proteins. The collected precipitate was dissolved in rehydration buffer (8 M urea, 2% CHAPS, 50 mM DTT and 0.2% IPG buffer), and then, in order to perform 2D gel electrophoresis, the concentration of the proteins was adjusted with a BCA protein analysis kit (Thermo Fisher Scientific), and 200 μg of each protein was separated with Immobiline Dry Strip (pH 4-7, 18 cm, GE healthcare). 2D separation was performed on 12% acrylamide gel in Ettan Dalt II system (10 mA/gel; 1 hr, 40 mA/gel; >6 hr) (GE Healthcare Life Science, Uppsala, Sweden) for 7 hours. Then, the gel having proteins separated thereon stained using silver staining technology, after which the image of the gel was analyzed using Progenesis SameSpots software (version. 4.1, Nonlinear Dynamics, Newcastle, UK), and spots on the gel were detected. In analysis of the gel image, the gel was automatically aligned by measurement of alignment vectors using an analysis wizard, and master images of the experimental groups were made using Progenesis SameSpots software. The master images were used to normalize and quantify the spot volume and to analyze the proteins showing a difference in expression between the groups.
# In order to investigate the molecular target of SeMet (selenomethionine) having chemopreventive activity against colorectal cancer, the colon tissue samples obtained from groups 1 to 4 in Example 1 were analyzed by mass spectrometry.
# The cut spots were treated with trypsin, and protein identification was performed using a nano LC/MS system composed of a Surveyor HPLC system (Thermo Scientific, Waltham, Mass.) equipped with a nano-ESI source and an electrospray ionization (ESI)-quadrupole ion trap (QIT) mass spectrometer (LCQ Deca XP-Plus, Thermo Finnigan, San Jose, Calif., USA). In order to desalt and concentrate 10 μl of trypsin peptides, the peptide was loaded into a C18 trap column (i.d. 300 μm, length 5 mm, particle size 5 μm; LC Packings, Amsterdam, Netherlands) through an auto sampler at a flow rate of 20 μl/min. Then, the trapped peptides were allowed to flow backward and separated in a C18 reversed-phase capillary column (75 μm silica tube, length 150 mm, particle size 5 μm). The pump flow rate was split 1:100 for a column flow rate of […]. Mobile phase A was a solution of a mixture of 0.5% acetic acid and 0.02% formic acid in water, and mobile phase B was a solution of a mixture of 0.5% acetic acid and 0.02% formic acid in 80% acetonitrile. The samples were injected into the column and eluted by mobile phase B at a concentration gradient of 5-5 20 50 60 80 100% for 0-15-18-50-55-60-62 minutes, respectively. MS and MS/MS spectra were obtained using a capillary tube (temperature: 220° C., ESI voltage: 2.5 kV, and collision energy: 35%). […]
# CRP (C-reactive protein) = experiment: Immunohistochemical analysis of colon tissue: CRP; assay type: in vivo, mouse
# Description: as §2, §3
# [4] = system: AOM-DSS-induced colorectal cancer; experiment: Histopathological observation (H & E) of colon tissue of AOM-DSS mice; assay type: in vivo, mouse; settings: group 4 (SeMet pretreatment + AOM-DSS) compared to group 3 (AOM-DSS alone)
# Description: as §1
# CRC = settings: patients who take selenium (Marshall 2008); cited from earlier work
# [5] = administration of SeMet alone (group 2)
# [6] = group 4 (SeMet pretreatment + AOM-DSS) vs AOM-DSS-induced colorectal cancer tissue
# [7] = pretreatment with SeMet + AOM-DSS vs colorectal cancer development, immunohistochemistry
compound,measurement,setting,value
"C[Se]CC[C@H](N)C(=O)O [SeMet, selenomethionine]",development of AOM-induced premalignant lesions,[1],reduces
same,8-OHdG in colon tissue,[2],decreased
same,polyps in the colon,AOM-DSS mouse model,significantly decreased
same,expression of PNP,[3]; [5],increased
same,expression of PNP,[3]; [6],increased again
same,expression of ANXA2,ANXA2 (annexin A2); SeMet administered alone,did not change
same,expression of ANXA2,ANXA2 (annexin A2); [7],decreased
same,expression of PHB,PHB (prohibitin); [5],increased
same,expression of PHB,PHB (prohibitin); [6],increased again
same,Expression in SeMet/AOM-DSS,"colon tissues; Alcohol dehydrogenase (Akr1a4), spot 50",Decreased
same,Expression in SeMet/AOM-DSS,"colon tissues; Aldose reductase (Akr1b3), spot 49",Decreased
same,Expression in SeMet/AOM-DSS,"colon tissues; Annexin 1 (Anxa1), spot 51",Decreased
same,Expression in SeMet/AOM-DSS,"colon tissues; Annexin 2 (Anxa2), spot 48",Decreased
same,Expression in SeMet/AOM-DSS,"colon tissues; Annexin 3 (Anxa3), spot 40",Increased
same,Expression in SeMet/AOM-DSS,"colon tissues; Annexin 7 (Anxa7), spot 57",Increased
same,Expression in SeMet/AOM-DSS,"colon tissues; Beta-actin (Actb), spot 39",Increased
same,Expression in SeMet/AOM-DSS,"colon tissues; C-reactive protein (Crp1), spot 14",Decreased
same,Expression in SeMet/AOM-DSS,"colon tissues; Cofilin 1 (Cfl1), spot 4",Decreased
same,Expression in SeMet/AOM-DSS,"colon tissues; Cofilin 2 (Cfl2), spot 4",Decreased
same,Expression in SeMet/AOM-DSS,"colon tissues; Destrin (Dstn), spot 5",Decreased
same,Expression in SeMet/AOM-DSS,"colon tissues; Eukaryotic translation initiation 5A (Eif5a), spot 10",Increased
same,Expression in SeMet/AOM-DSS,"colon tissues; Glutathione transferase omega 1 (Gsto1), spot 25",Decreased
same,Expression in SeMet/AOM-DSS,"colon tissues; Hypoxanthine-guanine phosphoribosyltransferase 1 (Hprt1), spot 29",Decreased
same,Expression in SeMet/AOM-DSS,"colon tissues; Inorganic pyrophosphatase 1 (Ppa1), spot 38",Increased
same,Expression in SeMet/AOM-DSS,"colon tissues; Isoform 1 of Isocitrate dehydrogenase [NAD] subunit alpha (Idh3a), spot 41",Increased
same,Expression in SeMet/AOM-DSS,"colon tissues; Isoform 1 of Tropomyosin alpha-1 chain (Tpm1), spot 43",Decreased
same,Expression in SeMet/AOM-DSS,"colon tissues; L-lactate dehydrogenase A chain (Ldha), spot 47",Decreased
same,Expression in SeMet/AOM-DSS,"colon tissues; Nucleoside diphosphate kinase B (Nme2), spot 8",Decreased
same,Expression in SeMet/AOM-DSS,"colon tissues; Peroxiredoxin 1 (Prdx1), spot 16, 21",Decreased
same,Expression in SeMet/AOM-DSS,"colon tissues; Peroxiredoxin 4 (Prdx4), spot 16, 21",Decreased
same,Expression in SeMet/AOM-DSS,"colon tissues; Phosphoglycerate mutase 2 (Pgam2), spot 24",Decreased
same,Expression in SeMet/AOM-DSS,"colon tissues; Prohibitin (Phb), spot 34",Increased
same,Expression in SeMet/AOM-DSS,"colon tissues; Proteasome activator complex subunit 1 (Psme1), spot 32",Increased
same,Expression in SeMet/AOM-DSS,"colon tissues; Proteasome subunit beta type 1 precursor (Psmb1), spot 18",Decreased
same,Expression in SeMet/AOM-DSS,"colon tissues; Purine nucleoside phosphorylase (Pnp), spot 33",Increased
same,Expression in SeMet/AOM-DSS,"colon tissues; S-formylglutathione hydrolase (Esd), spot 46",Decreased
same,Expression in SeMet/AOM-DSS,"colon tissues; Transaldolase (Taldo1), spot 52",Decreased
same,Expression in SeMet/AOM-DSS,"colon tissues; Triosephosphate isomerase 1 (Tpi1), spot 19, 23",Decreased
same,Expression in SeMet/AOM-DSS,"colon tissues; Ubiquinol cytochrome c reductase 1 (Uqcrfs1), spot 20",Decreased
same,expression of CRP,CRP (C-reactive protein); SeMet administered alone,did not change
same,expression of CRP,CRP (C-reactive protein); [7],decreased
same,dysplasia and neoplastic lesions,[4],decreases
[Se] [selenium],reduction of the risk of CRC,CRC,about 50%
